In patent US20110230423A1, “THERAPY AND MEDICAMENT USING INTEGRIN LIGANDS FOR TREATING CANCER” (priority 2008, published 2011):

What was measured:
[1] = tested on: U251 human glioblastoma cells; test: Rat orthotopic glioblastoma model radiotherapy, cilengitide scheduling experiments; assay type: in vivo, NIH rnu nude rats; conditions: individual animals
Procedure: NIH rnu nude rats are anaesthetized, restrained, and injected intracerebrally 1 mm retro orbitally, 3 mm to the right of the bregma and at a depth of 2.5 mm with 5×10E5 U251 human glioblastoma cells suspended in 10 ul of culture medium, using a #2701 Hamilton syringe fitted with a 26 gauge needle, essentially as previously described (Engebraaten et al., 1999). After 14 days, cilengitide (4 mg/kg) is given as an intraperitoneal bolus in PBS, at various time (8 h, 4 h, 2 h, 1 h) prior to a single treatment with single, collimated, dorsal-ventral beam of 6 MV x-rays, so that 95-100% of the central axis dose of 25 Gy hit the tumor volume (Kim et al., 1999). Each of the 7 subsequent days the animals also received an identical i.p. bolus of cilengitide. The animals are maintained under ad libitum food and drink until they become moribund, or are sampled for tissue analysis (in the t-4 and t-8 h groups, where the animals are healthy past 230 days post tumor injection). A Kaplan-Meier survival curve is calculated and plotted (FIG. 1) from the raw data (Table 1). All animals in the RT monotherapy group died by 120 d.

[2] = tested on: newly diagnosed glioblastoma (GBM); test: Phase I/IIa trial of cilengitide and temozolomide with concomitant radiotherapy, followed by maintenance, in newly diagnosed glioblastoma; assay type: in vivo, human
Procedure: Purpose: To evaluate safety, toxicity, and efficacy of the combination of the cyclic RGD pentapeptide Cilengitide (=cyclo-(Arg-Gly-Asp-DPhe-NMe-Val)), an inhibitor of integrins avβ3 and avβ5, in addition to standard temozolomide (TMZ) and radiotherapy (RT).
Patients and methods: Fifty-two pts (PS 0-1: 92%, 2: 8%; median age 57 yrs) after biopsy (n=9/17%) or tumor resection (n=43/83%) were treated with standard TMZ/RT (Stupp et al. NEJM 2005). In addition Cilengitide (500 mg i.v., 2×/week) was started one week before TMZ/RT and given throughout for the duration of chemotherapy or until progression. Primary endpoint was progression free survival rate at 6 months (target: 65%). Patients were followed with MRI every 2 months. Histopathologic diagnosis and MRI imaging were independently reviewed, MGMT promoter methylation status was assessed in 45 (86.5%) pts.

brain metastases = conditions: hypofractionation approach with or without the radiosensitizer; cited from earlier work

CC(C)[C@H]1C(=O)N[C@@H](CCCN=C(N)N)C(=O)NCC(=O)N[C@@H](CC(=O)O)C(=O)N[C@H](Cc2ccccc2)C(=O)N1C [Cilengitide, cyclo-(Arg-Gly-Asp-DPhe-NMeVal)]
Days Post Implant ([1]; cilengitide 4 mg/kg i.p. 4 hours pre-irradiation (Rt 25 Gy) plus 7 subsequent daily boluses): > 230 days
Days Post Implant ([1]; cilengitide 4 mg/kg i.p. 8 hours pre-irradiation (Rt 25 Gy) plus 7 subsequent daily boluses): > 230 days
Treatment related non-hematologic grade 3 toxicities (patients) ([2]; Cilengitide 500 mg i.v. 2x/week plus standard TMZ/RT, n=3/52): 5.7%
Tolerability of the combination ([2]; Cilengitide and TMZ/RT): well tolerated
sigmoid perforation (grade 2), patients ([2]; patient with a history of sigmoid diverticulosis): One

COCC(O)Cn1ccnc1[N+](=O)[O-] (stereo not drawn) [misonidazol]
median survival (brain metastases): ≤ 3.9 months
